Source: patent US20250312321A1, “TRANSIENT SIROLIMUS WITH FASL MICROGELS” (iTOLERANCE, Inc., priority 2022, published 2025)

Design: species or system non-human primates (Cyno)
Settings: cynomolgus monkey, in vivo
Experimental: Biotinylated PEG microgels (150 μm diameter) were synthesized by microfluidic cross-linking and functionalized with SA-FasL as previously described (Headon, D M, et al., Nat. Mater. 17:732-739 (2018)). Four diabetic non-human primates (NHP) (FIG. 1B; Tables 1 and 2) underwent transplantation of allogeneic islets (14,800 to 18,700 islet equivalents (IEQ)/kg) mixed with SA-FasL-presenting microgels (150,000 to 200,000 microgels delivering 0.2 mg of SA-FasL) on the omental surface. […]
At selected time points, intravenous glucose tolerance tests (IVGTT) were performed to assess glucose disposal kinetics and insulin and C-peptide levels. […] Consistent with these metrics of graft function, background levels of insulin and C-peptide were measured in the serum of SA-FasL microgel NHPs after STZ administration but before islet transplant and equivalently low levels were evident post-graft removal (insulin: pre-STZ vs. post-STZ, P<0.0001; post-STZ vs. post-graft removal (PGR), P=0.9998; C-peptide: pre-STZ vs. post-STZ, P=0.0060; post-STZ vs. post-graft removal, P=0.4032) (FIG. 2D). […] SA-FasL protein was detected in the serum of all NHPs as early as 1-day after transplantation ranging from 4-56 ng/mL and decreasing to background levels by days 7-14.

CO[C@H]1C[C@@H]2CC[C@@H](C)[C@@](O)(O2)C(=O)C(=O)N2CCCC[C@H]2C(=O)O[C@H]([C@H](C)C[C@@H]2CC[C@@H](O)[C@H](OC)C2)CC(=O)[C@H](C)/C=C(\C)[C@@H](O)[C@@H](OC)C(=O)[C@H](C)C[C@H](C)/C=C/C=C/C=C/1C [Sirolimus]
Time after discontinuation at which sirolimus levels became undetectable: 2 weeks
